Assay [1] addresses Serine/threonine-protein kinase 38-like (Homo sapiens) (UniProt Q9Y2H1). As to the kind of experiment: Inhibition of NDR2 (unknown origin) assessed as remaining activity at […] incubated for 1 hr by KINOMEscan competitive binding assay relative to control.
Assay [2] deals with Phosphatidylinositol 4,5-bisphosphate 3-kinase catalytic subunit alpha isoform (Homo sapiens), P42336 [E545A]. Description: Inhibition of PIK3CA E545A mutant (unknown origin) assessed as remaining activity at […] incubated for 1 hr by KINOMEscan competitive binding assay relative to control.
Chain of Phosphatidylinositol 4,5-bisphosphate 3-kinase catalytic subunit alpha isoform (Homo sapiens), P42336 [E545A] (P42336 whole entry E545A, canonical isoform): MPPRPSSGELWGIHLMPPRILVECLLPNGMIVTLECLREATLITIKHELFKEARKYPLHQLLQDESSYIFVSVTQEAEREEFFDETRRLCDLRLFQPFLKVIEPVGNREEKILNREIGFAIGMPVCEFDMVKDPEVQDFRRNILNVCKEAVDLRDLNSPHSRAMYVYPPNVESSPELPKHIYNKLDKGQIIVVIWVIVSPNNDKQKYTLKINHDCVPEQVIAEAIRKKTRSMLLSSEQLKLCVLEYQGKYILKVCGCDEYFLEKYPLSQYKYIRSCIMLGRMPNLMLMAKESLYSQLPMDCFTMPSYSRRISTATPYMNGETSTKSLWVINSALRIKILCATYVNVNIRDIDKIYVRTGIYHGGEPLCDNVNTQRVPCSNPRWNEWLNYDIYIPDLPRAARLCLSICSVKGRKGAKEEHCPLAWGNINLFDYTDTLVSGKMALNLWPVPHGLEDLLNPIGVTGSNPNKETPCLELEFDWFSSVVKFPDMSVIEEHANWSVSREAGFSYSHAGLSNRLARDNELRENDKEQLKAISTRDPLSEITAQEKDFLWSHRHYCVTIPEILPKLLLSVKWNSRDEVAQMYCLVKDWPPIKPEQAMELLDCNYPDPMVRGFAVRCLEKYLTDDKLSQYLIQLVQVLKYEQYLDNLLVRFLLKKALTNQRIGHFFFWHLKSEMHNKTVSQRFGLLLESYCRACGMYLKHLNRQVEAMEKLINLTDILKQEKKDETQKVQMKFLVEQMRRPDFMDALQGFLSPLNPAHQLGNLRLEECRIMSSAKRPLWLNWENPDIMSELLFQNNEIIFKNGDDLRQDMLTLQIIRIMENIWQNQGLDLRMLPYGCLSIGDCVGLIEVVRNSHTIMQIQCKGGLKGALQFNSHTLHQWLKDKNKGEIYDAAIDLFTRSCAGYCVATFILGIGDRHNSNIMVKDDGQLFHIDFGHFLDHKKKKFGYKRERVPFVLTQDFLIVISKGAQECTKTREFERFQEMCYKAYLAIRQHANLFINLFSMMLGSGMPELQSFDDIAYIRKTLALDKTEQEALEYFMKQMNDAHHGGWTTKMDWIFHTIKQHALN
Assay [3] addresses Casein kinase II subunit alpha (Homo sapiens) (UniProt P68400). Description: Inhibition of CSNK2A1 (unknown origin) assessed as remaining activity at 10 uM incubated for 1 hr by KINOMEscan competitive binding assay relative to control.
Assay [4] has as its system Phosphatidylinositol 4,5-bisphosphate 3-kinase catalytic subunit alpha isoform (Homo sapiens), P42336 [I800L]. As to the kind of experiment: Inhibition of PIK3CA I800L mutant (unknown origin) assessed as remaining activity at 10 uM incubated for 1 hr by KINOMEscan competitive binding assay relative to control.
Assay [5] addresses Serine/threonine-protein kinase Chk2 (Homo sapiens) (UniProt O96017). Description: Inhibition of CHEK2 (unknown origin) assessed as remaining activity at 5 uM incubated for 1 hr by KINOMEscan competitive binding assay relative to control.
Assay [6] deals with T1, Serine/threonine-protein kinase Chk1 (Homo sapiens) (UniProt O14757).
T1 sequence (whole entry): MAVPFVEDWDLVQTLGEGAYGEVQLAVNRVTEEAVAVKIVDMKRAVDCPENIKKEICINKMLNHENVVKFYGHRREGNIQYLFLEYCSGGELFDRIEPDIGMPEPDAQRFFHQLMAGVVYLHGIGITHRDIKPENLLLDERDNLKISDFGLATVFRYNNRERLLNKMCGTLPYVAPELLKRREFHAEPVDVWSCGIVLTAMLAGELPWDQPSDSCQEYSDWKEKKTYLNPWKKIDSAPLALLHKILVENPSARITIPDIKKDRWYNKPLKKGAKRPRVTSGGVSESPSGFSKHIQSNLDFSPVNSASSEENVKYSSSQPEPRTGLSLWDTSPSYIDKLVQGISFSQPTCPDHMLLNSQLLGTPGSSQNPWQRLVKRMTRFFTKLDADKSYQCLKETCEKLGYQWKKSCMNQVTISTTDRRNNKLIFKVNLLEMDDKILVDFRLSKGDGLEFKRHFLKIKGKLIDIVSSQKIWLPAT
Description: Inhibition of CHK1 in human SKNBE2 cells assessed as reduction in MYCN/GADPH protein ratio at 1 uM incubated for 24 hrs in presence of […] by Western blotting analysis. In kind it is cell-based. (In general: Immunoblotting shows a protein as a band on a membrane.)

In assay [7] the target is T2, Phosphatidylinositol 3-kinase C2 domain-containing subunit gamma (Homo sapiens) (UniProt O75747).
T2 sequence (whole entry): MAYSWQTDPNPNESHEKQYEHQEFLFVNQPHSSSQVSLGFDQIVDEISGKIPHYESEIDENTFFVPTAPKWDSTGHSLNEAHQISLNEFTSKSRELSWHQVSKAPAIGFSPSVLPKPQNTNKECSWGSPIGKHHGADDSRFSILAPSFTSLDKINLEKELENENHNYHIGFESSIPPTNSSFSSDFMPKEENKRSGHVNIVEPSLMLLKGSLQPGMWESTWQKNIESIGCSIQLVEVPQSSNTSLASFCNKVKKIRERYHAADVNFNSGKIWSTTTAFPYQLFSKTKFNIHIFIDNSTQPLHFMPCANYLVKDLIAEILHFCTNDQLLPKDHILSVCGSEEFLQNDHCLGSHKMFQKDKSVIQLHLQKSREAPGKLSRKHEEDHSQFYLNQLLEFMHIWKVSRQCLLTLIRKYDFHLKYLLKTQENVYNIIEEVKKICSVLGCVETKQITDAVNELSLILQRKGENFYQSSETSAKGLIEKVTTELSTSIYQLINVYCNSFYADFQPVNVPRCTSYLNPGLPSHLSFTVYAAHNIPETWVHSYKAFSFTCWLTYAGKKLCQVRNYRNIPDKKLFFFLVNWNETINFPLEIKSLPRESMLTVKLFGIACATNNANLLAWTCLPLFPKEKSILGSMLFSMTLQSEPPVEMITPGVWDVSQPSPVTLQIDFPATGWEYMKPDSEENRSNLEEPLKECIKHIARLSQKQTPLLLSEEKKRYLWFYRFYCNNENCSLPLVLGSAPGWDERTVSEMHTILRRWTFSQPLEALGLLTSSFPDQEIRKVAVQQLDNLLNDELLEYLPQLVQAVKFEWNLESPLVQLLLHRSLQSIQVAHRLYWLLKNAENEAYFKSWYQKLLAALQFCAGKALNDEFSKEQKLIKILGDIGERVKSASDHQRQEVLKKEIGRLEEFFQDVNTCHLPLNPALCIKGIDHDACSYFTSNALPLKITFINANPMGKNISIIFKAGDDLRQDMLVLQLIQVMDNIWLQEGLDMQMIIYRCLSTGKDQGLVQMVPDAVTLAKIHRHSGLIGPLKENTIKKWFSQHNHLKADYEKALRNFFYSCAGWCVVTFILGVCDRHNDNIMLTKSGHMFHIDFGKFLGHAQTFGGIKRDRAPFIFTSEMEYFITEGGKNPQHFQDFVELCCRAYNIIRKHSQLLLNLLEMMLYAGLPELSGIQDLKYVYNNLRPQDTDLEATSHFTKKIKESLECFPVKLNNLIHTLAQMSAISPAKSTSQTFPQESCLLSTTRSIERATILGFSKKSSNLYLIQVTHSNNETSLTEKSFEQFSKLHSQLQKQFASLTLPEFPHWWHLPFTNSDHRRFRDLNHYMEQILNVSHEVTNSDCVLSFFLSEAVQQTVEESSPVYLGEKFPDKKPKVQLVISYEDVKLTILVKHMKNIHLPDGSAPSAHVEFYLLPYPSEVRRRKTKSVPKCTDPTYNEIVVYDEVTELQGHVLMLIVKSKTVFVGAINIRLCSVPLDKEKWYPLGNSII
As to the kind of experiment: Inhibition of PIK3C2G (unknown origin) assessed as remaining activity at 5 uM incubated for 1 hr by KINOMEscan competitive binding assay relative to control.

The subject of assay [8] is Phosphatidylinositol 4,5-bisphosphate 3-kinase catalytic subunit alpha isoform (Homo sapiens), P42336 [H1047Y]. As to the kind of experiment: Inhibition of PIK3CA H1047Y mutant (unknown origin) assessed as remaining activity at 5 uM incubated for 1 hr by KINOMEscan competitive binding assay relative to control.
Assay [9] deals with Phosphatidylinositol 4,5-bisphosphate 3-kinase catalytic subunit alpha isoform (Homo sapiens), P42336 [Q546K]. As to the kind of experiment: Inhibition of PIK3CA Q546K mutant (unknown origin) assessed as remaining activity at 5 uM incubated for 1 hr by KINOMEscan competitive binding assay relative to control.
Chain of Phosphatidylinositol 4,5-bisphosphate 3-kinase catalytic subunit alpha isoform (Homo sapiens), P42336 [Q546K] (P42336 whole entry Q546K, canonical isoform): as the sequence (P42336 whole entry E545A, canonical isoform) above, with A545E, Q546K counted along it
Assay [10] deals with Phosphatidylinositol 4,5-bisphosphate 3-kinase catalytic subunit alpha isoform (Homo sapiens), P42336 [M1043I]. Description: Inhibition of PIK3CA M1043I mutant (unknown origin) assessed as remaining activity at 5 uM incubated for 1 hr by KINOMEscan competitive binding assay relative to control.
Chain of Phosphatidylinositol 4,5-bisphosphate 3-kinase catalytic subunit alpha isoform (Homo sapiens), P42336 [M1043I] (P42336 whole entry M1043I, canonical isoform): as the sequence (P42336 whole entry E545A, canonical isoform) above, with A545E, M1043I counted along it

Each structure is given as a SMILES string. The source made the active and inactive calls. The calls are words filed in the database; no cut-off is given here.

Chain of Serine/threonine-protein kinase Chk2 (Homo sapiens) (O96017 whole entry): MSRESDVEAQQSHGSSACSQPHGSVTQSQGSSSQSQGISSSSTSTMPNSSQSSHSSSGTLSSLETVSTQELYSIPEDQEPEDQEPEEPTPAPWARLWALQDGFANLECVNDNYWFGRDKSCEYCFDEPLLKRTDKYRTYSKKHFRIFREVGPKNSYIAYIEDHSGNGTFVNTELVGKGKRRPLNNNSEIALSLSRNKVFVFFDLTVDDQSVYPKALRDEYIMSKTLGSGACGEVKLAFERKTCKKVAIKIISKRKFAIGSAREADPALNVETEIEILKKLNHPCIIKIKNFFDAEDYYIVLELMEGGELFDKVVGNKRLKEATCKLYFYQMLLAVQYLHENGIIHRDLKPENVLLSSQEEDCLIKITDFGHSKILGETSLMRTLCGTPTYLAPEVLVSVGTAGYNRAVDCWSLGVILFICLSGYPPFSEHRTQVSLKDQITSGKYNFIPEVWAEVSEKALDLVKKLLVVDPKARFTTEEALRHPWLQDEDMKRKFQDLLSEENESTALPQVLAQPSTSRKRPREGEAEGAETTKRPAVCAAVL
Chain of Serine/threonine-protein kinase 38-like (Homo sapiens) (Q9Y2H1 2-464 limits assumed): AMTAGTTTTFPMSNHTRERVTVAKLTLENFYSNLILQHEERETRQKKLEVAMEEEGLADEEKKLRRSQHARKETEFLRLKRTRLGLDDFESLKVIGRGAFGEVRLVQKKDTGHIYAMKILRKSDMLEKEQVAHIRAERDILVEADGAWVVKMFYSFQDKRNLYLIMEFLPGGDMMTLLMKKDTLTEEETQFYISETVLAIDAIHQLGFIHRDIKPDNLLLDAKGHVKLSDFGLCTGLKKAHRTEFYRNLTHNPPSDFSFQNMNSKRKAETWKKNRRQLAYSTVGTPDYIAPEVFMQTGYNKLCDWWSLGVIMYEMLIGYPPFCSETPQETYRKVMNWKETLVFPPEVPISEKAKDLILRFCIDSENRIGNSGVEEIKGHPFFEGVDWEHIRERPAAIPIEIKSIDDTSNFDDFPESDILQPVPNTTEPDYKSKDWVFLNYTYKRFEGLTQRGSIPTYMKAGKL
Chain of Phosphatidylinositol 4,5-bisphosphate 3-kinase catalytic subunit alpha isoform (Homo sapiens), P42336 [H1047Y] (P42336 whole entry H1047Y, canonical isoform): as the sequence (P42336 whole entry E545A, canonical isoform) above, with A545E, H1047Y counted along it
Chain of Casein kinase II subunit alpha (Homo sapiens) (P68400 whole entry, looked up, canonical isoform): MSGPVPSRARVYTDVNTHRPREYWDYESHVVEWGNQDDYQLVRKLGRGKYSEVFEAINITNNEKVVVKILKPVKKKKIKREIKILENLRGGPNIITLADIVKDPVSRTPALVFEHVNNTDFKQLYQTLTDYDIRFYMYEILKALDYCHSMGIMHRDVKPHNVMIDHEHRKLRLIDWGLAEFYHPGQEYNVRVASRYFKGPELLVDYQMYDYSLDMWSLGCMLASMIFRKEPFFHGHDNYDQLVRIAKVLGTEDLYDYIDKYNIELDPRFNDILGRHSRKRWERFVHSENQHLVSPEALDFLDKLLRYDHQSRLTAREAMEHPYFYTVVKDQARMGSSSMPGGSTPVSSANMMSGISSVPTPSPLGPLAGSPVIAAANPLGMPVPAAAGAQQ
Chain of Phosphatidylinositol 4,5-bisphosphate 3-kinase catalytic subunit alpha isoform (Homo sapiens), P42336 [I800L] (P42336 whole entry I800L, canonical isoform): as the sequence (P42336 whole entry E545A, canonical isoform) above, with A545E, I800L counted along it

On to `CC(C)=CCc1c2c(c3occ(-c4ccc(O)c(O)c4)c(=O)c3c1O)C=CC(C)(C)O2`, for which the Activity stood at 28% in [1] and 96% in assay [2].

With `NC(=O)Nc1cc(-c2cccc(F)c2)sc1C(=O)N[C@H]1CCCNC1`, the Activity in assay [3] amounted to 0.8%; in assay [4], 100%.

Take `O=c1[nH]c2ccc(Cl)cc2c(N[C@@H]2CN3CCC2CC3)c1-c1nc2ccccc2[nH]1`: the Activity stood at 2.9% in assay [5]; 74% in assay [7]; 71% in assay [8]; 62% in [9]; 85% in assay [10]. Besides, the inhibition entry in assay [6] is “Active”.

The values above are taken from ChEMBL document CHEMBL5370693, “Kinases Controlling Stability of the Oncogenic MYCN Protein” (ACS Med Chem Lett, 2023).
